The values below come from ChEMBL document CHEMBL4184137, “Lysine Deacetylase Inhibitors in Parasites: Past, Present, and Future Perspectives” (J Med Chem, 2017).

The IC50 is the concentration that gives 50% inhibition.

One data set has as its system Leishmania infantum. The experiment in a line: Antileishmanial activity against amastigote stage of Leishmania infantum MHOM/MA671TMAP263 expressing luciferase after 72 hrs by luciferase assay. The data set is classed as functional, organism-based. To be noted: MHOM/MA671TMAP263, 72 h.
The nature of data set [1]: Selectivity index, ratio of IC50 for N-terminal His6-tagged recombinant Leishmania infantum SIR2RP1 expressed in Escherichia coli to IC50 for human SIRT1.
Data set [2] addresses T1, NAD-dependent protein deacetylase sirtuin-1 (Homo sapiens, UniProt Q96EB6).
T1 sequence (Q96EB6 whole entry): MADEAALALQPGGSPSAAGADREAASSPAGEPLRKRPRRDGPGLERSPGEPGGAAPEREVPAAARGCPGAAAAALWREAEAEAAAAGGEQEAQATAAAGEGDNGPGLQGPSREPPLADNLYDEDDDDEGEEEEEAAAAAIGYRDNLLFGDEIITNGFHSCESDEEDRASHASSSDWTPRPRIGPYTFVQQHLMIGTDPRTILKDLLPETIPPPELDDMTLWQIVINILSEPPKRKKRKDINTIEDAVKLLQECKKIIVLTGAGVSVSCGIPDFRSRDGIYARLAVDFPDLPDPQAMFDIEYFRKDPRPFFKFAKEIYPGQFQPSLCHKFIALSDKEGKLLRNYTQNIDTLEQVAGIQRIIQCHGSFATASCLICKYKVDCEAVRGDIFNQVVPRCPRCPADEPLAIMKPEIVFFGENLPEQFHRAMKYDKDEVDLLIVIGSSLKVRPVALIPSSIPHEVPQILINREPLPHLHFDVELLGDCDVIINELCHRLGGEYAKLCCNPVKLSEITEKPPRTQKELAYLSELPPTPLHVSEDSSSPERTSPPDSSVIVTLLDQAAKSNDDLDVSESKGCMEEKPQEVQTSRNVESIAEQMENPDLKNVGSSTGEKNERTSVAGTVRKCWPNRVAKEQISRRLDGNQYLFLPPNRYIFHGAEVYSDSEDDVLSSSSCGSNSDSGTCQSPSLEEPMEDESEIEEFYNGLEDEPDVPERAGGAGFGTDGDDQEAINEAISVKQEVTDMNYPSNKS
Nature of the data set: Inhibition of human SIRT1 in presence of NAD+ by fluorimetric method.

Another data set deals with Toxoplasma gondii. The experiment in a line: Antiparasitic activity against Toxoplasma gondii. It is filed as functional, organism-based.
Data set [3] is described as follows: Selectivity index, ratio of IC50 for human NFF cells to IC50 for Plasmodium falciparum. To be noted: read-out: Ratio IC50. The data set is classed as toxicity.
A short description of data set [4]: Selectivity index, ratio of IC50 for HUVEC to IC50 for Plasmodium falciparum. The data set is classed as toxicity. As to conditions: human, read-out: Ratio IC50.
A short description of data set [5]: Selectivity index, ratio of IC50 for human PTC cells to IC50 for Plasmodium falciparum. To be noted: read-out: Ratio IC50. The data set is classed as toxicity.
Data set [6] is described as follows: Selectivity index, ratio of IC50 for human NHDF cells to IC50 for Plasmodium falciparum. The data set is classed as toxicity. As to conditions: read-out: Ratio IC50.
Another data set relates to Plasmodium falciparum. The experiment in a line: Antimalarial activity against Plasmodium falciparum infected in human erythrocytes after 24 hrs by microbeta scintillation counting-based [3H]-hypoxanthine incorporation assay. The data set is classed as functional, organism-based.
In a further data set the test system is Schistosoma mansoni. The experiment in a line: Antiparasitic activity against Schistosoma mansoni assessed as reduction in cell viability at 50 uM after 3 days relative to control. The data set is classed as functional.
Data set [7] deals with T2, Protein deacetylase HDAC6 (Homo sapiens, UniProt Q9UBN7).
T2 sequence (Q9UBN7 whole entry): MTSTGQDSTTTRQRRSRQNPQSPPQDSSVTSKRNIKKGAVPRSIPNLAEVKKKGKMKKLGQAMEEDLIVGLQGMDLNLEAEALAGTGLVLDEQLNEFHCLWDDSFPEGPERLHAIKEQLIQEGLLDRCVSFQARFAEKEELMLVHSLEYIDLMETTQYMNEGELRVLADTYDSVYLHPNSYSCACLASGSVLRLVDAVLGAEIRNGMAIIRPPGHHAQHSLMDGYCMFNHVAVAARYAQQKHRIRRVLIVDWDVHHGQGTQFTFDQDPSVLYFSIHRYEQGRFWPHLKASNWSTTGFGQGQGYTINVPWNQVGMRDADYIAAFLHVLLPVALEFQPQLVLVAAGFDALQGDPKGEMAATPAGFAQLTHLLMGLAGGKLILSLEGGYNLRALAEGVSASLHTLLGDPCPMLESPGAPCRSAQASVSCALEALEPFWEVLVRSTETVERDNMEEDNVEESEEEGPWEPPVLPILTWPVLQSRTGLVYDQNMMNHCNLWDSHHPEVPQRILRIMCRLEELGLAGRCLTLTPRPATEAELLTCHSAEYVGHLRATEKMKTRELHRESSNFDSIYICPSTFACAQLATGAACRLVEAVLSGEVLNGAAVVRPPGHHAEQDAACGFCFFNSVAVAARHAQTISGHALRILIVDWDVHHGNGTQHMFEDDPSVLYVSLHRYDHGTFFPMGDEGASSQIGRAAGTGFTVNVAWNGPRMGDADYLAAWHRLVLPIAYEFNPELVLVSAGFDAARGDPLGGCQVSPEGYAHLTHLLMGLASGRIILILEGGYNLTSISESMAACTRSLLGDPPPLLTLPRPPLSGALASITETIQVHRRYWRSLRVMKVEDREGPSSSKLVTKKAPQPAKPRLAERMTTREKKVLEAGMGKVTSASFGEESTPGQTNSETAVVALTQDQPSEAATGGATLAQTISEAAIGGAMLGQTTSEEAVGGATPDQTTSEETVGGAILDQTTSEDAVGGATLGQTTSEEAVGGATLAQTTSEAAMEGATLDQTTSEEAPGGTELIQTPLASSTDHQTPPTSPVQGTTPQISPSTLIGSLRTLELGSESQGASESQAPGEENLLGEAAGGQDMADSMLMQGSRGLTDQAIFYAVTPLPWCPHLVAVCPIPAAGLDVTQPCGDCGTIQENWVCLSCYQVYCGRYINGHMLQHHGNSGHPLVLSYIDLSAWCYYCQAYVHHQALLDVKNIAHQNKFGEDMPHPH
The experiment in a line: Inhibition of human HDAC6 using Z(Ac)Lys-AMC as substrate by fluorimetric assay.

The target in data set [8] is T3, Histone deacetylase 8 (Schistosoma mansoni, UniProt A5H660).
T3 sequence (A5H660 whole entry): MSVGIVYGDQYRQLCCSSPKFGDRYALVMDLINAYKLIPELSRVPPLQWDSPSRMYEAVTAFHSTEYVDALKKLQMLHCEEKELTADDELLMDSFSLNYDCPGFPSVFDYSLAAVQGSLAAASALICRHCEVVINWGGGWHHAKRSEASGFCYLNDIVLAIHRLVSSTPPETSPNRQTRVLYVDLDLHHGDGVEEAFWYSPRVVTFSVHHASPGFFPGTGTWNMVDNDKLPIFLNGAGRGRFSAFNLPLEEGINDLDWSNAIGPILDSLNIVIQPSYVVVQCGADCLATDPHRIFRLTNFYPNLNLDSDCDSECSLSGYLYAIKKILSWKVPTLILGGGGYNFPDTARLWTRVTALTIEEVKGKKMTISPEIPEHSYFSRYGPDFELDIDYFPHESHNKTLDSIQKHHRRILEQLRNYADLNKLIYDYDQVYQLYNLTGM
The experiment in a line: Inhibition of Schistosoma mansoni HDAC8 using Fluor de Lys(R) as substrate by fluorimetric assay.

Another data set addresses Histone deacetylase 1 (Homo sapiens, UniProt Q13547). The experiment in a line: Inhibition of human HDAC1 using Z(Ac)Lys-AMC as substrate by fluorimetric assay.
The target of data set [9] is T4, Histone deacetylase 8 (Homo sapiens, UniProt Q9BY41).
T4 sequence (Q9BY41 whole entry): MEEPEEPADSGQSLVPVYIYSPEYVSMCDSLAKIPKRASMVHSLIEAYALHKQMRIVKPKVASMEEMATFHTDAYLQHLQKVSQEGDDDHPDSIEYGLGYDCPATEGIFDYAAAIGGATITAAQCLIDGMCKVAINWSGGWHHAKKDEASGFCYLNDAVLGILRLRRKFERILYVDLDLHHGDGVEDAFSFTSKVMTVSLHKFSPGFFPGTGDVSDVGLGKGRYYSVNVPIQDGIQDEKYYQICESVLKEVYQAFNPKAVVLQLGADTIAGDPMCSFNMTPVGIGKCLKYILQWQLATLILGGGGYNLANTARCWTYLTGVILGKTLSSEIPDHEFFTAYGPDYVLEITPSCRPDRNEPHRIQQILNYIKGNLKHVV
Nature of the data set: Inhibition of human HDAC8 using Fluor de Lys(R) as substrate by fluorimetric assay.

Chain of Histone deacetylase 1 (Q13547 whole entry): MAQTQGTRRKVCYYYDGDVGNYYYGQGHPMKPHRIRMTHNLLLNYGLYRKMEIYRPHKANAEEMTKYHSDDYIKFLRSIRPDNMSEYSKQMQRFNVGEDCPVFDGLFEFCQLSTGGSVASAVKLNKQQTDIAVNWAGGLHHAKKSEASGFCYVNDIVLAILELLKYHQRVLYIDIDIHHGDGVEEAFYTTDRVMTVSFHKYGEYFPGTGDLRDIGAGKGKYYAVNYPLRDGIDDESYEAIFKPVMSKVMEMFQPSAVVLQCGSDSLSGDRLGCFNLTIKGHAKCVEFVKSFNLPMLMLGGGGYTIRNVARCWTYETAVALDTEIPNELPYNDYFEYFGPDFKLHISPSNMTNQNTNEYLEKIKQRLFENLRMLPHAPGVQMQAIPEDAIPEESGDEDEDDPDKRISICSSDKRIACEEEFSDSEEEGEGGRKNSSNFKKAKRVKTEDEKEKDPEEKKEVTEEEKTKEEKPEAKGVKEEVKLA

On to `O=C1c2cccc3cccc(c23)C(=O)N1CCCNCCCCCCCCCNCCCN1C(=O)c2cccc3cccc(c23)C1=O`, for which the IC50 with Leishmania infantum was determined as 6.03 µM; in [2], 97.4 µM. Also, in data set [1], the Ratio IC50 came out at 17.

`CCC(=O)CCCCC[C@@H]1NC(=O)[C@H]2CCCCN2C(=O)[C@H]([C@@H](C)CC)NC(=O)[C@H](Cc2cn(OC)c3ccccc23)NC1=O` [APICIDIN] gave an IC50 in the data set on Toxoplasma gondii of 0.013 to 0.015 µM.

With `CCCCc1nc2cc(/C=C/C(=O)NO)ccc2n1CCN(CC)CC` [PRACINOSTAT], the selectivity ratio in data set [3], in [4], in data set [5] and in [6] was 4 to 1250 in each case. The same molecule showed an IC50 with Plasmodium falciparum of 0.08 to 0.15 µM.

As for `O=C(NO)c1sc2ccccc2c1Cl`, in the data set with Schistosoma mansoni, the Activity was determined as 100%. The IC50 in data set [7] stood at 37.4 µM; against Histone deacetylase 8 [8], 4.3 µM; at Histone deacetylase 1 it was 19.4 µM; at Histone deacetylase 8 [9] it was 3.1 µM.
